Test [1] concerns fresh human promyelocytic leukemia cells (AML3). As to conditions: cited from earlier work.
A further test deals with AML-3 patients. As to conditions: oral, alone; cited from earlier work.
Test [2] relates to human Burkitt's lymphoma (RAJI) cells. The test is described as follows: MTS assay of RAJI cell proliferation. Format: cell-based. As to conditions: 900 mcg/ml, 72 hours. On the procedure:
Inhibition of proliferation by pirfenidone of human Burkitt's lymphoma (RAJI) cells in vitro.
To determine the inhibitory effect of pirfenidone concentrations on Burkitt's lymphoma (RAJI) cells, a MTS assay was used which incorporates a tetrazolium dye that measures the cellular conversion of the dye into a formazan product by the activation of NADH-generating dehydrogenases found in metabolically active cells.
(§1) 1. 100 microl. of cells was seeded into 96 well plates at 1×10^5 cells/ml in media containing 100 mcg/ml, 300 mcg/ml and 900 mcg/ml of pirfenidone, as well as a pirfenidone-free media control.
(§2) 2. Cells were incubated at 37 degrees C., at 5.0% CO2 for 72 hours.
(§3) 3. After incubation a standard curve was made of 100 microliters of cells added to the plate at 5×10^5 cells/ml making 1:2 dilutions all the way down to a pre-set degree of dilution.
(§4) 4. 2.0 mls of the MTS solution was mixed with a 100 microliter of the PMS solution, and 20 microliters of this combined dye solution was added to each well and incubated at 37 degrees C., 5.0% CO2 for 3 hours.
(§5) 5. Subsequently the absorbance was read at 490 nm.
(In general: Tetrazolium assays rely on reduction of a dye to a coloured formazan, in cell work by metabolically active cells.)

Test [3] has as its system human T-cell leukemia (JURKAT) cells. The test is described as follows: MTS assay of JURKAT cell proliferation. As to conditions: 900 mcg/ml, 72 hours. In kind it is cell-based. How it is done: Inhibition of proliferation by pirfenidone of human T-cell leukemia (JURKAT) cells in vitro.
To determine the inhibitory effect of pirfenidone concentrations on human T-cell leukemia (JURKAT), a MTS assay was used which incorporates a tetrazolium dye that measures the cellular conversion of the dye into a formazan product by the activation of NADH-generating dehydrogenases found in metabolically active cells.
as §1, §2, §3, §4, §5

A further test relates to human leiomyoma cells. Kind of test: Leiomyoma cell proliferation, cell counts and Trypan Blue viability on day 7. In kind it is cell-based. How it is done: Leiomyoma tissues were obtained from several premenopausal women with symptomatic uterine fibroids at elective hysterectomy, and who were not receiving any hormonal or other drug therapy. The fibroid tissues were minced into 1-2 mm# explants and placed in suitable DMEM supplemented with 10% bovine serum. The fibroid tissue was digested for 14-18 hours at 37 degrees C. in an incubator. After centrifugation, a resulting cell pellet was resuspended in DMEM and then placed in culture flasks. The cultures were maintained at 37 degrees centigrade in a humidified atmosphere of 5% CO2 and 95% air.
Leiomyoma cells were plated in 100 mm dishes (100,000 each dish) and allowed to attach overnight in DMEM plus 10% fetal bovine serum until they reached 80-90% confluence.

Test [4] deals with human promyelocytic leukemia (HL-60) cells. The test is described as follows: Inhibition of proliferation of HL-60 cells, Trypan Blue cell counts. Format: cell-based. An excerpt: Inhibition of proliferation by pirfenidone of human promyelocytic leukemia (HL-60) cells in vitro.
[…] Five ml of each pirfenidone concentration, and of the control were placed into a T25 tissue culture flask along with 1×10^5 cells. Every day for 4 days an aliquote from each flask was taken out, then stained with Trypan Blue, and counts were repeated three times on each aliquote.

These results are taken from USRE40155E1, “Methods for treatment of benign and malignant tumors, including lymphomas, leukemias, and leiomyomas” (priority 1995, dated 2008).

In general, inhibition refers to the relative decrease from the control value, in per cent. Read a high inhibition as a response far below the control.

Consider `CC1=C(/C=C/C(C)=C/C=C/C(C)=C/C(=O)O)C(C)(C)CCC1` [All-trans-retinoic acid], for which the “induction of differentiation in vitro” value in test [1] is “differentiate in vitro to mature functional gramulocytes”. Further, the clinical response entry in the test on AML-3 patients was “complete remission”.

On to `Cc1ccc(=O)n(-c2ccccc2)c1` [pirfenidone], for which the “reduction in number of active RAJI cells” value in test [2] is reported as 45%. Also, the “reduction in number of active JURKAT cells” value in test [3] was 75%. Further, the “CELL COUNTS (DAY 7) LEIOMYOMA” value is 315,000 in the test on human leiomyoma cells (0.01 MG/ML), 205,000 in the test with human leiomyoma cells (0.1 MG/ML), 170,000 in the test on human leiomyoma cells (0.3 MG/ML) and 69,000 in the test on human leiomyoma cells (1.0 MG/ML). Moreover, the “RECENT DEAD CELLS (DAY 7) LEIOMYOMA” value with human leiomyoma cells (0.01 MG/ML) is 8.0; in the test with human leiomyoma cells (0.1 MG/ML), 10.0; in the test with human leiomyoma cells (0.3 MG/ML), 6.0; with human leiomyoma cells (1.0 MG/ML), 16.0. The “percentage of dead leiomyoma cells” value in the test with human leiomyoma cells (1000 micrograms/ml) is on record as 16%. Also, in the test with human leiomyoma cells (graded concentrations in the culture media, 7 days (FIG. 4)), the “effect on proliferation of leiomyoma cells” value is “significant inhibitory effect”. Further, in test [4] (900 micrograms/ml, after 3 and 4 days), the “toxic death of HL-60 cells” value is reported as “without causing a toxic death of the cells”. Moreover, in test [4] (1400 micrograms/ml), the “inhibition of proliferation and cell death of HL-60 cells” value was “deaths of almost all cells”. In test [4] (Homo sapiens, HL-60, 900 micrograms/ml, after 3 and 4 days), this molecule yielded an inhibition at 900 µg/mL of 63%.
